Reference: patent US8609084B2, “Protection of plants against their pathogenic agents” (Lesaffre et Compagnie, priority 2005, dated 2013)

System: Venturia inaequalis
Test: Efficiency against scab, grafted apple plants in pots
Format: in vivo
Parameters: Efficiency (%) Leaves treated / Efficiency (%) All leaves / Efficiency (%) New leaves: concentration or dose not given beside the values
Description: The test was carried out on grafted plants, in pots. Three species were used: ‘Reinette des Capucins’, ‘Jonagold’, and ‘Reinette de Waleffe’, grafted on M9 rootstock. The plants were grown under a plastic tunnel at different times, so that they were all at the same stage at the time of the trial: starting with Reinette de Waleffe, then 15 days later, Reinette des Capucins, then 1 week later, Jonagold.
The plants were labelled with the variety and the method of treatment received before inoculation.
The method of treatment, preparation of the inoculum, inoculation and observations are similar to those described in example 1.
The plants were treated twice, successively, 10 days apart. The day following the second treatment, the last extended leaf ? F1 ? was identified.
Two days after the second treatment, the pathogen (Venturia inaequalis) was inoculated using a dose of 1.5×10^5 conidia/ml, directly in the moist room. Inoculation is followed by a 48 hours incubation in moist room at 18° C., then the plants remained in the boxes with a temperature of 18°±2° C. and a relative humidity of 80±10%.
The study was organised as follows:
The OY2 yeast cell walls correspond to an acqueous suspension at 25 mg/l of the Springcell 8001 product from Biospringer SAS, (Maisons-Alfort), France), with 96% cell walls of dry matter content.
The observations were made on the 21st day after the inoculation of the last 2 treated leaves (F2 and F1) and on the leaf newly formed after treatment (F0) for about 25 leaves per subject.
An observation at 41 days after the treatment gave the following results.
At this time, new leaves had extended: F-1 and F-2, and the disease progressed by natural contamination, without any re-inoculation.

[1] = All varieties, 21st day after inoculation
[2] = All varieties, 41 days after the treatment
[3] = Capucins, 21st day after inoculation
[4] = Capucins, 41 days after the treatment
[5] = Jonagold, 21st day after inoculation
[6] = Jonagold, 41 days after the treatment
[7] = Waleffe, 21st day after inoculation
[8] = Waleffe, 41 days after the treatment

## CC(N)CC(=O)O (stereo not drawn) [baba, β-aminobutyric acid]
[1]
  Efficiency (%) All leaves: 47.2%
  Efficiency (%) F0: 27.0%
  Efficiency (%) F1: 47.1%
  Efficiency (%) F2: 67.6%
  Efficiency (%) Leaves treated: 57.4%
  Sporulant surface/leaf (%) F0: 13.0%
  Sporulant surface/leaf (%) F1: 15.4%
  Sporulant surface/leaf (%) F2: 9.6%
[2]
  Efficiency (%) All leaves: 54.2%
  Efficiency (%) New leaves: 40.1%
  Efficiency (%) Treated leaves: 68.1%
  Sporulant surface/leaf (%) F0: 31.0%
  Sporulant surface/leaf (%) F1: 26.7%
  Sporulant surface/leaf (%) F2: 10.0%
  Sporulant surface/leaf (%) F-1: 28.2%
  Sporulant surface/leaf (%) F-2: 8.6%
[3]
  Efficiency (%) All leaves: 60.3%
  Efficiency (%) F0: 45.3%
  Efficiency (%) F1: 59.8%
  Efficiency (%) F2: 75.8%
  Efficiency (%) Leaves treated: 67.8%
  Sporulant surface/leaf (%) F0: 4.3%
  Sporulant surface/leaf (%) F1: 8.0%
  Sporulant surface/leaf (%) F2: 4.2%
[4]
  Efficiency (%) All leaves: 77.1%
  Efficiency (%) New leaves: 55.5%
  Efficiency (%) Treated leaves: 88.2%
  Sporulant surface/leaf (%) F0: 14.07%
  Sporulant surface/leaf (%) F1: 10.62%
  Sporulant surface/leaf (%) F2: 4.00%
  Sporulant surface/leaf (%) F-1: 9.95%
  Sporulant surface/leaf (%) F-2: 4.00%
[5]
  Efficiency (%) All leaves: 57.9%
  Efficiency (%) F0: 38.0%
  Efficiency (%) F1: 50.5%
  Efficiency (%) F2: 85.1%
  Efficiency (%) Leaves treated: 67.8%
  Sporulant surface/leaf (%) F0: 13.9%
  Sporulant surface/leaf (%) F1: 17.9%
  Sporulant surface/leaf (%) F2: 6.0%
[6]
  Efficiency (%) All leaves: 57.7%
  Efficiency (%) New leaves: 49.0%
  Efficiency (%) Treated leaves: 67.8%
  Sporulant surface/leaf (%) F0: 37.79%
  Sporulant surface/leaf (%) F1: 27.57%
  Sporulant surface/leaf (%) F2: 10.57%
  Sporulant surface/leaf (%) F-1: 29.57%
  Sporulant surface/leaf (%) F-2: 3.43%
[7]
  Efficiency (%) All leaves: 28.6%
  Efficiency (%) F0: 10.3%
  Efficiency (%) F1: 35.2%
  Efficiency (%) F2: 40.3%
  Efficiency (%) Leaves treated: 37.8%
  Sporulant surface/leaf (%) F0: 20.9%
  Sporulant surface/leaf (%) F1: 20.4%
  Sporulant surface/leaf (%) F2: 18.6%
[8]
  Efficiency (%) All leaves: 33.0%
  Efficiency (%) New leaves: 24.0%
  Efficiency (%) Treated leaves: 44.8%
  Sporulant surface/leaf (%) F0: 41.05%
  Sporulant surface/leaf (%) F1: 42.00%
  Sporulant surface/leaf (%) F2: 15.55%
  Sporulant surface/leaf (%) F-1: 45.16%
  Sporulant surface/leaf (%) F-2: 18.42%
